Results on nine molecules are retold here after patent publication US10022382B2, “RNA polymerase I inhibitors and uses thereof” (Tel HaShomer Medical Research Infrastructure and Services …, priority 2013, dated 2018).

One data set concerns Mouse splenocytes. Put plainly: XTT cell viability assay, PHA-stimulated splenocytes. Format: cell-based. The settings on record: 72 hours; for IC50: Splenocyte; for IC50 / XTT IC50: mouse splenocytes, 25-400 nM. As to the method: Cell viability was assessed by the 2,3 bis [2-Methoxy-4-nitro-5-sulfophenyl]-2H-tetrazolium-5-carboxanilide (XTT) assay (Biological Industries, Kibbutz Beit Hemeek, Israel), which measures the reduction of a tetrazolium component (XTT) into soluble formazan product by the mitochondria of viable cells. The intensity of the dye obtained is proportional to the number of metabolic active cells. On the day of measurement, cells were washed and XTT was added according to the manufacturer's instructions. Plates were incubated at 37° C. for 2-5 hours. The absorbance was read at 450 nm.
Mouse splenocytes were removed and spleenocytes were plated (250,000 cell/well) in DMEM+10% FCS+P/S+Q and […] Phytohaemaglutinin (PHA), in the presence of elevated concentrations (25-400 nM) of RAM-0 (Compound 1), RAM-1 (Compound 4), RAM-2 (Compound 2) or RAM-3 (Compound 3) for 72 hours. Cells cultured without PHA served as control. Control mice at zero are mice splenocytes with PHA stimulation.
Following incubation, cell viability was determined by XTT assay, as described above.
In general terms: Tetrazolium dyes change colour on reduction, which living cells bring about.

In data set [1] the test system is MOG35-55 EAE in C57BL/6J mice. In words: MOG35-55 EAE prevention (immunization) model. The settings on record: Mus musculus. Type of data set: in vivo. The method, then: Mice: Eight-weeks-old female C57BL/6J mice (15-20 g, Harlan laboratories, Rehovot, Israel) were used in all experiments. Animal maintenance and experimental protocols were performed in accordance with the Israeli Council for Animal Care guidelines and approved by Sheba IRB Animal Care Committee. Mice were kept in an SPF environment, maintained on a 12-h light/dark cycle at a constant environmental temperature with free access to food and water in their home cages.
Induction of MOG35-55 EAE (Prevention Model): EAE (Experimental Autoimmune Encephalomyelitis) was induced in 8 week old female C57BL/6J mice (15-20 g, Harlan laboratories, Rehovot, Israel) by immunization with an emulsion containing 300 μg of purified myelin oligodendrocyte glycoprotein (MOG) peptide ([…], corresponding to residues 35-55; obtained from (Difco, Detroit, Mich.) in saline and an equal volume of complete Freund's adjuvant containing 5 mg H37RA (Difco, Detroit, Mich.). 0.2 ml of the inoculum was injected subcutaneously. In addition, 300 ng of Bordetella pertusis toxin (Sigma) in 0.2 ml saline was injected intraperitoneally at the day of induction and two days later.
Oral gavages with the tested compound, at various concentrations ranging from 3 mg/kg-30 mg/kg in PBS or 50 mM NaH2PO4 (PH 4.5), or with vehicle only, were initiated at day of immunization. Mice were monitored daily for clinical signs of EAE, scored as: 1, flaccid tail; 2, forelimb weakness and poor righting ability; 3, hind limb paralysis; 4, quadriplegia; 5, moribund. Animal reaching a score of 4 were scarified using CO2.
Treatment was stopped once 30% of the vehicle-treated animals scored 1 on the EAE score. […]
The therapeutic index (LD50/ED50), which is also referred to herein as Safety Margin (SM), was then determined based on the EAE model. ED50 is the minimum effective dose observed for 50% of the tested animals.

A short description of data set [2]: Toxicity (LD50, survival) in the EAE model, continuous administration. The settings on record: C57BL/6J, mouse, in vivo, oral; EAE prevention model, continuous administration. Type of data set: in vivo. The method, then: (§1) The animals were evaluated for signs of acute toxicity and survival during the entire administration period in the EAE model.
(§2) The therapeutic index (LD50/ED50), which is also referred to herein as Safety Margin (SM), was then determined based on the EAE model.

The test system of the next data set is C57BL/6J mice. The data set is described as above. Format: in vivo. The settings on record: EAE prevention model. The method, then: as §1, §2
The next data set in a line: Solubility in mQ water. Format: physicochemical. The following applies: 50 mg in 0.5 mL mQ water, room temperature. As to the method:
The solubility of Compounds 1 and 10 was determined by dissolving 50 mg of the tested compound in 0.5 mL of mQ water, at room temperature.

For the next data set, the system named is POL-I. The settings on record: human cancer cell lines; cited from earlier work.
The subject of data set [3] is Experimental Autoimmune Encephalomyelitis (EAE). The following applies: cited from earlier work.

The structures appear in SMILES notation.

Turning to `Cc1cnc(CNC(=O)c2/c(=N/C(C)C)c3ccc(N4CCCN(C)CC4)nc3n3c2sc2ccccc23)cn1` [Compound 7], half-maximal inhibition in the data set on Mouse splenocytes (IC50) was put at 50 nM.
As to `Cc1cnc(CNC(=O)c2c(Cl)c3ccc(N4CCCN(C)CC4)nc3[n+]3c2sc2ccccc23)cn1` [Compound 2, 5-chloro-2-(4-methyl-1,4-diazepan-1-yl)-6-(((5-methylpyrazin-2-yl)methyl)carbamoyl)benzo[4,5]thiazolo[3,2-a][1,8]naphthyridin-12-ium], in the data set on Mouse splenocytes, the “suppression of splenocyte proliferation compared to Compound 1 (XTT)” value was “no substantial effect” and the “XTT IC50” value was “No Effect”.
Turning to `Cc1cnc(CNC(=O)c2c(=S)c3ccc(N4CCCN(C)CC4)nc3n3c2sc2ccccc23)cn1` [Compound 3, 2-(4-methyl-1,4-diazepan-1-yl)-N-((5-methylpyrazin-2-yl)methyl)-5-thioxo-5H-benzo[4,5]thiazolo[3,2-a][1,8]naphthyridine-6-carboxamide], in the data set on Mouse splenocytes, the “effectiveness in suppressing proliferation compared to Compound 1” value was 6 folds and the IC50 (usually the concentration that inhibits the measured activity by half) was 20 nM.
In turn, `CO/N=c1/c(C(=O)NCc2cnc(C)cn2)c2sc3ccccc3n2c2nc(N3CCCN(C)CC3)ccc12` [Compound 8] showed an IC50 in the data set on Mouse splenocytes of 50 nM.
Take `Cc1cnc(CNc2nc(=O)nc3c4ccc(N5CCCN(C)CC5)nc4n4c(sc5ccccc54)c2-3)cn1` [Compound 9]: in the data set with Mouse splenocytes, the “XTT IC50” value is recorded as “No Effect”.
In the data set with Mouse splenocytes, `C/N=c1/c(C(=O)NCc2cnc(C)cn2)c2sc3ccccc3n2c2nc(N3CCCN(C)CC3)ccc12` [Compound 5, (E/Z)-2-(4-methyl-1,4-diazepan-1-yl)-5-(methylimino)-N-((5-methylpyrazin-2-yl)methyl)-5H-benzo[4,5]thiazolo[3,2-a][1,8]naphthyridine-6-carboxamide] gave a concentration for half-maximal inhibition (IC50) of 50 nM. This counts as double-digit nanomolar.
Still for that read-out and setting: next, `CCC/N=c1/c(C(=O)NCc2cnc(C)cn2)c2sc3ccccc3n2c2nc(N3CCCN(C)CC3)ccc12` [Compound 6]: 50 nM.
`Cc1cnc(CNC(=O)c2c(=O)c3ccc(N4CCCN(C)CC4)nc3n3c2sc2ccccc23)cn1` [Compound 1, 2-(4-methyl-1,4-diazepan-1-yl)-N-((5-methylpyrazin-2-yl)methyl)-5-oxo-5H-benzo[4,5]thiazolo[3,2-a][1,8]naphthyridine-6-carboxamide, reference compound] registered an IC50 in the data set with Mouse splenocytes of 50 nM. Moreover, the median effective dose (ED50) (usually the dose at which the effect has come halfway, by size or by number of responders) in data set [1] stood at 12.5 mg/kg. In addition, the median lethal dose (LD50) – broadly, the dose expected to kill half of the subjects tested – in data set [2] is 25 mg/kg. Moreover, the “SM (therapeutic index LD50/ED50)” value in the data set with C57BL/6J mice is 2. In addition, the solubility entry in “Solubility in mQ water” is on record as “dissolved only in a pH 4.5 buffered solution after vigorous stirring for 30 minutes”. Besides, the POL-I activity entry in the data set with POL-I was “inhibited POL-I activity”. Also, the EAE disease severity result in data set [3] (administered at clinical disease onset) is given as “reduce the disease severity”. Moreover, the EAE prevention entry in data set [3] (administered at disease induction) is on record as “prevent animal Experimental Autoimmune Encephalomyelitis (EAE)”.
As to `Cc1cnc(CNC(=O)c2c(=N)c3ccc(N4CCCN(C)CC4)nc3n3c2sc2ccccc23)cn1` [Compound 4, 5-imino-2-(4-methyl-1,4-diazepan-1-yl)-N-((5-methylpyrazin-2-yl)methyl)-5H-benzo[4,5]thiazolo[3,2-a][1,8]naphthyridine-6-carboxamide], in the data set with Mouse splenocytes, the “suppression of splenocyte proliferation compared to Compound 1 (XTT)” value is on record as “dose response curve similar to RAM-0 (Compound 1)” and the midpoint of inhibition, the IC50, lay at 50 nM.
